# Data as given in PubChem BioAssay (NCI).
#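 Following 48 hours of exposure in 96-well plates, responses at five concentrations were used to interpolate endpoints linearly. At the GI50, growth is halved. TGI is the concentration that stops growth completely.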
# How the values were obtained:
# Assay in all cases: NCI tumour cell line growth inhibition, 48 h
# NCI-H522 lung = system: NCI-H522 lung
# IGROV1 ovarian = system: IGROV1 ovarian
# HS 578T breast = system: HS 578T breast
# OVCAR-3 ovarian = system: OVCAR-3 ovarian
# SF-268 CNS = system: SF-268 CNS
# CCRF-CEM leukemia = system: CCRF-CEM leukemia
# LOX IMVI melanoma = system: LOX IMVI melanoma
# SF-295 CNS = system: SF-295 CNS
# A498 renal = system: A498 renal
# MDA-MB-231 breast = system: MDA-MB-231 breast
Structure (SMILES),GI50 (NCI-H522 lung) [µM],TGI (NCI-H522 lung) [µM],GI50 (IGROV1 ovarian) [µM],TGI (IGROV1 ovarian) [µM],GI50 (HS 578T breast) [µM],TGI (HS 578T breast) [µM],GI50 (OVCAR-3 ovarian) [µM],TGI (OVCAR-3 ovarian) [µM],GI50 (SF-268 CNS) [µM],TGI (SF-268 CNS) [µM],GI50 (CCRF-CEM leukemia) [µM],TGI (CCRF-CEM leukemia) [µM],GI50 (LOX IMVI melanoma) [µM],TGI (LOX IMVI melanoma) [µM],GI50 (SF-295 CNS) [µM],TGI (SF-295 CNS) [µM],GI50 (A498 renal) [µM],TGI (A498 renal) [µM],GI50 (MDA-MB-231 breast) [µM],TGI (MDA-MB-231 breast) [µM]
C=CC1CC12C(=O)C1OC2(C)C2C(=O)c3ccccc3C(=O)C12 (centres undefined),> 61.7,> 100,> 69.3,> 100,> 57.4,98.2,13.9,60.5,> 54,> 92.5,39.2,> 93.9,12.7,68.7,23.6,59.8,> 100,> 100,24.8,> 100
COc1cc2c(cc1OC)C13CCN4CC5=CCOC(CC(=O)O)C(C5CC41)C3N2 (centres undefined),,> 100,,> 100,,> 100,,> 100,,> 100,,> 100,,> 100,,> 100,,> 100,,> 100
Cc1ccc(S(=O)(=O)N(C)C)cc1[N+](=O)[O-],> 100,> 100,59.7,> 100,> 100,> 100,> 100,> 100,> 100,> 100,> 100,> 100,> 100,> 100,> 100,> 100,> 100,> 100,> 100,> 100
CO/N=C(\c1ccccc1)c1cnn(-c2ccccc2)c1N,> 25,> 25,> 25,> 25,> 25,> 25,> 25,> 25,> 25,> 25,> 25,> 25,> 25,> 25,> 25,> 25,> 16.8,> 25,> 25,> 25
O=C1C(=O)c2ccc(Br)cc2-c2cc(Br)ccc21,0.407,1.74,6.57,29.5,8.27,> 78.9,0.619,1.36,1.35,8.58,0.553,1.83,0.717,2.13,51.8,> 100,> 28.1,> 100,0.82,2.54
Cc1nc2sc(C(=O)Nc3cccc4ccccc34)c(N)c2cc1C(C)O (centres undefined),0.207,> 22.4,0.308,> 50,0.121,> 50,0.155,,0.367,> 50,0.21,> 50,0.264,> 50,0.171,> 50,0.0756,1.02,0.751,> 50
Cc1c(Cl)ccc2c1NC(=O)C2(O)CC(=O)c1ccc(Cl)cc1Cl (centres undefined),,> 50,,> 50,,48.9,,> 50,,> 50,,22.4,,> 50,,> 50,,> 50,,> 50
Cc1ccc(NS(=O)(=O)c2ccc(-c3cnc(C4CC4)o3)cc2)cc1,2.43,17.4,3.78,17.3,2.71,13.5,2.1,6.13,6.19,21.3,3.31,34.6,4.88,18.2,2.66,12.2,2.05,6.83,4.5,18.8
Brc1c[n+](Cc2ccc3ccccc3c2)cn1Cc1ccc2ccccc2c1,1.53,3.85,0.676,2.08,1.92,4.84,1.41,2.86,1.47,3.02,1.69,5.04,1.42,2.74,2.22,7.28,1.88,5.09,1.4,2.86
CN(C(=O)c1ccc(F)cc1C(F)(F)F)C1CCN(c2nnc(-c3ccnn3C)c3ccccc23)CC1,16.2,> 100,57.3,> 100,50.8,> 100,38.1,> 100,> 74.5,> 100,31.6,> 100,61.5,> 100,31.5,> 100,54.8,> 100,37.8,> 100
COc1ccc(C(CC(=O)c2ccccc2)C(C(=O)c2ccccc2)C(c2ccc(OC)cc2)C2C(=O)NC(=O)NC2=O)cc1 (centres undefined),16.2,72.6,13.2,> 100,25.9,> 100,11.9,44.4,12.8,75.4,12.9,> 100,9.38,> 100,23.2,> 100,11,43.5,2.24,16.2
C=C1C(=O)O[C@H]2[C@H]1CC/C(COC(=O)OCCCCCOC(=O)OC/C1=C/CC[C@@]3(C)O[C@H]3[C@H]3OC(=O)C(=C)[C@@H]3CC1)=C\CC[C@@]1(C)O[C@@H]21,0.156,0.372,1.67,4.37,2.48,19.8,0.273,0.823,1.68,3.99,0.321,1.14,0.241,0.654,2.12,5.88,1.5,3.21,0.256,0.803
CC1=CC[C@@H]2[C@@H](CC[C@@]2(C)O)C(C)(C)[C@H]1CC[C@@H]1[C@@]2(C)CCC(=O)C(C)(C)O[C@@H]2CC[C@]1(C)O,,38.9,,76.5,,77,,> 100,,> 100,,48,,33.3,,48.9,,73,,> 100
